Read-outs that look alike come from different tables or passages of the source.
Key:
[1] = set-up: method as in PMID 28303528; settings: humans, cited from earlier work
clinical = settings: plasma
Description: Signed and dated written informed consent was obtained from each patient before participation in the study and before the performance of any procedures. After informed consent was obtained, eligible participants were given the choice to be admitted to the clinical research unit on day − 1 or on day 1. A summary of the study design can be found in Fig. 1. […] Subjects continued fasting until 2 h after the start of the IV infusion, at which time a non-standardised light meal was served. The radiolabelled dose contained approximately 100 nCi (3.7 kBq) radioactivity and was administered into one arm of the subject; the contralateral arm was used for pharmacokinetic sampling and clinical laboratory blood draws. The syringe for IV drug administration was connected to a Perfusor Space Infusion Pump (B. Braun), which was set to administer 7 mL in 15 min. Blood samples were taken pre-dose and at 1, 1.5, 2 (just before start of IV infusion), 2.125 (halfway through the IV infusion), 2.25 (just before end of infusion), 2.33, 2.66, 3, 4, 6, and 12 h. Sampling was done on each morning of days 2, 3, 4, 5, 7, 9, 11, 13, 15, and 22. Plasma was divided in two sets: one set was sent to Xceleron Inc. (Germantown, MD, USA) for the determination of plasma concentrations of the ^14C-microtracer by AMS, and the other set was stored at the Antoni van Leeuwenhoek Hospital until it received pharmacokinetic analysis at the Good Laboratory Practice–licensed laboratory of the pharmacy. Plasma was separated from blood by centrifugation (3,000 rpm, 15 min, 4 °C) and was stored frozen at ≤ − 70 °C in polypropylene tubes before and after analysis. […] Vital signs assessments, haematology assessment, and blood chemistry assessments were done frequently to make sure that the patients were still in sufficient condition to remain on treatment. […] The study was approved by the local independent ethics committee and was conducted in accordance with local regulations, the Declaration of Helsinki, and International Conference on Harmonisation Good Clinical Practice Guidelines.
In brief, separation was carried out using an HPLC Acquity I Class pump (Waters, Milford, MA, USA) supplied with a SunFire C18 column (50 mm × 2.1 mm, 5 µm, Waters). Gradient elution was applied using 20 mM ammonium acetate in water (mobile phase A) and 0.1% formic acid in acetonitrile-methanol (50:50, v/v; mobile phase B). Each batch of experimental samples was run against freshly prepared calibration standards. Replicate quality control samples at three concentrations were stored and analysed alongside study samples. The analytical range was from 1 to 500 ng/mL.
Total ^14C-radioactivity concentrations in plasma samples were determined using AMS. Plasma samples were directly aliquoted into tubes containing copper oxide powder (CuO). The samples were graphitised and analysed by a Single Stage Accelerator Mass Spectrometer (SSAMS) 250 kV system (National Electrostatics Corp., Middleton, WI, USA). […] Samples were analysed by an Agilent 1200 HPLC system (Agilent Technologies, Palo Alto, CA, USA) equipped with a wavelength UV detector set to 254 nm. Separation was achieved using a Phenomenex Kinetex 2.6 µ biphenyl column (100 Å, 100 × 3.0 mm). Mobile phase A and B consisted of 20 mM ammonium acetate in water and 0.1% formic acid in acetonitrile–methanol (50:50, v/v), respectively. Column oven temperature was set at 40 °C, and run-time was 18 min. […] The fractions were graphitised and analysed by SSAMS. Each batch of experimental samples was run against freshly prepared calibration standards at seven concentrations in duplicates. Replicate quality control samples at three concentrations were stored and also analysed alongside study samples. Finally, F po was calculated as the ratio of the dose-normalised AUC of the oral dose to the IV dose.

[2] = Sprague–Dawley rats; ref data not published; cited from earlier work
[3] = beagle dogs; ref data not published; cited from earlier work
[4] = cited from earlier work

Structure (SMILES) | Presence of metabolite in circulation [1] | bioavailability (clinical; human, oral, 300 mg) [%] | AUC(0-inf) (clinical; human, po, 300 mg) [ng·h/mL] | AUC(0-t) (clinical; human, po, 300 mg) [ng·h/mL] | Cmax (clinical; human, po, 300 mg) [ng/mL] | t max (clinical; human, po, 300 mg, t max, oral 300 mg niraparib, n = 6, median and range) [h] | half-life (clinical; human, po, 300 mg, t ½, oral 300 mg niraparib, n = 6, sampling 22 days) [h] | t max (clinical; oral 300 mg niraparib, n = 6, median and range) | Dose recovered as the parent compound in faeces ([1]; oral radiolabelled niraparib) | Total orally administered dose recovered in excreta ([1]; urine and faeces, radiolabelled niraparib) | F po [2] [%] | F po [3] [%] | t max ([4]; previous phase I dose-escalation study, range 1.5–4.1 h) | t ½ ([4]; previous study, shorter sampling period) [h]
O=C(O)c1cccc2cn(-c3ccc(C4CCCNC4)cc3)nc12 (centres unmarked) [M1] | substantially present in circulation | – | – | – | – | – | – | – | – | – | – | – | – | –
NC(=O)c1cccc2cn(-c3ccc([C@@H]4CCCNC4)cc3)nc12 [niraparib] | – | 72.7 | 47400 | 46900 | 1270 | 4 | ~95.6 | 4.01 (3.07–6.03) h | approximately 20% | approximately 90% | 27 | 57 | around 3.1 h | 36.2

Source: article PMC5754411 (Cancer Chemotherapy and Pharmacology, 2017)
